System: yeast genes (level of expressed mRNA)
Experiment: DNA chip analysis of expressed mRNA of yeast genes after 2 h culture with a toxic chemical substance
Type: cell-based, Saccharomyces cerevisiae S288C
Experimental: Yeast (Saccharomyces cerevtisiae S288C (α SUC2mal mel gap2 CUP1)) were cultured at 25° C. on YPD medium (yeast extract 1%, polypepton 2%, glucose 2%). One of toxic chemical substances was added to the cell at logarithmic growth phase, and the cell was further cultured for two hours. Cell was cultured without any chemical substance in the same condition, and was used as control. Concentrations of the chemical substances were defined to inhibit the growth of the yeast but not lead to death.
After the completion of cultivation, the culture was centrifuged to collect the cells. To the cells, sodium acetate buffer (50 mM sodium acetate, 10 mM EDTA, 1% SDS) was added, and the mixture was shaken at 65° C. for five minutes, followed by returning to room temperature, and obtaining the supernatant, which procedure was repeated two times. To the supernatant, ½ amount of a solution of phenol/chloroform was added, and the mixture was centrifuged to give a supernatant, which was added with an equal amount of chloroform, and the mixture was centrifuged to give a supernatant. To the supernatant, an equal amount of isopropanol containing 0.3 M sodium acetate was added, and the mixture was allowed to stand at room temperature for 30 minutes, after which the mixture was centrifuged to give a sediment of the whole RNAs. Seventy % ethanol was added to the sediment, and the mixture was again centrifuged to give a sediment, which was then dried and dissolved in water. mRNA was isolated from the whole RNAs as followings. In view of the fact that a poly A chain is attached to the 3′ terminus of mRNA, a polynucleotide having a poly T structure which was immobilized on the surface of latex beads was used to trap the mRNA, and then the mRNA was washed and eluted with spine column (Oligotex-dT30<Super>mRNA Purification Kit, Takara). Reverse transcription of the mRNA was conducted with a reverse transcriptase (Super Script II Reverse Transcriptase; catalogue No. 18064-014, GibcoBRL) using fluorescence-labeled nucleotides to give cDNAs that were introduced with Cy3-dUTP or Cy5-dUTP during the reverse transcription.
The labeled cDNAs were dissolved in TE buffer (10 mM Tris-HCl/1 mM EDTA, pH8.0), and the solution was dropped on the DNA chip containing the whole genes of yeast (DNA Chip Research Inc. Japan) so that the cDNAs were hybridized on the DNA chip at 65° C. for over 12 hours. The fluoresces intensity of the DNA chip was read with a scanner, and the ratio relative to the fluorescence intensity resulting from the absence of chemical substance was estimated as the following, which is shown in Tables 1 to 9: [formula]
In the Tables, “Intensity” indicated in the rightmost column is a value of the level of expressed mRNA of each gene in control cells as divided by the average level of the expressions of the whole genes.

## Oc1cc(Cl)c(Cl)cc1Cl [(6), 2,4,5-trichlorophenol]
Yeast gene YAR010C
  The level of expressed mRNA in the presence of chemical substance/The level of expressed mRNA in the absence of chemical substance: 2.3
Yeast gene YBL005W-A
  The level of expressed mRNA in the presence of chemical substance/The level of expressed mRNA in the absence of chemical substance: 1.2
Yeast gene YBL041W
  The level of expressed mRNA in the presence of chemical substance/The level of expressed mRNA in the absence of chemical substance: 1.7
Yeast gene YBL043W
  The level of expressed mRNA in the presence of chemical substance/The level of expressed mRNA in the absence of chemical substance: 26.9
Yeast gene YBL078C
  The level of expressed mRNA in the presence of chemical substance/The level of expressed mRNA in the absence of chemical substance: 2.4
Yeast gene YBR214W
  The level of expressed mRNA in the presence of chemical substance/The level of expressed mRNA in the absence of chemical substance: 0.8
Yeast gene YCL020W
  The level of expressed mRNA in the presence of chemical substance/The level of expressed mRNA in the absence of chemical substance: 1.0
Yeast gene YCL027W
  The level of expressed mRNA in the presence of chemical substance/The level of expressed mRNA in the absence of chemical substance: 1.3
Yeast gene YCR004C
  The level of expressed mRNA in the presence of chemical substance/The level of expressed mRNA in the absence of chemical substance: 1.8
Yeast gene YCR071C
  The level of expressed mRNA in the presence of chemical substance/The level of expressed mRNA in the absence of chemical substance: 2.5
Yeast gene YCR088W
  The level of expressed mRNA in the presence of chemical substance/The level of expressed mRNA in the absence of chemical substance: 2.0
Yeast gene YDL008W
  The level of expressed mRNA in the presence of chemical substance/The level of expressed mRNA in the absence of chemical substance: 2.7
Yeast gene YDL238C
  The level of expressed mRNA in the presence of chemical substance/The level of expressed mRNA in the absence of chemical substance: 2.1
Yeast gene YDR055W
  The level of expressed mRNA in the presence of chemical substance/The level of expressed mRNA in the absence of chemical substance: 3.9
Yeast gene YDR084C
  The level of expressed mRNA in the presence of chemical substance/The level of expressed mRNA in the absence of chemical substance: 2.1
Yeast gene YDR085C
  The level of expressed mRNA in the presence of chemical substance/The level of expressed mRNA in the absence of chemical substance: 2.1
Yeast gene YDR104C
  The level of expressed mRNA in the presence of chemical substance/The level of expressed mRNA in the absence of chemical substance: 1.7
Yeast gene YDR115W
  The level of expressed mRNA in the presence of chemical substance/The level of expressed mRNA in the absence of chemical substance: 2.3
Yeast gene YDR259C
  The level of expressed mRNA in the presence of chemical substance/The level of expressed mRNA in the absence of chemical substance: 0.5
Yeast gene YDR315C
  The level of expressed mRNA in the presence of chemical substance/The level of expressed mRNA in the absence of chemical substance: 9.4
Yeast gene YDR358W
  The level of expressed mRNA in the presence of chemical substance/The level of expressed mRNA in the absence of chemical substance: 2.5
Yeast gene YDR388W
  The level of expressed mRNA in the presence of chemical substance/The level of expressed mRNA in the absence of chemical substance: 1.0
Yeast gene YDR432W
  The level of expressed mRNA in the presence of chemical substance/The level of expressed mRNA in the absence of chemical substance: 0.6
Yeast gene YDR481C
  The level of expressed mRNA in the presence of chemical substance/The level of expressed mRNA in the absence of chemical substance: 0.9
Yeast gene YDR510W
  The level of expressed mRNA in the presence of chemical substance/The level of expressed mRNA in the absence of chemical substance: 1.0
Yeast gene YEL042W
  The level of expressed mRNA in the presence of chemical substance/The level of expressed mRNA in the absence of chemical substance: 0.5
Yeast gene YEL066W
  The level of expressed mRNA in the presence of chemical substance/The level of expressed mRNA in the absence of chemical substance: 2.2
Yeast gene YER039C
  The level of expressed mRNA in the presence of chemical substance/The level of expressed mRNA in the absence of chemical substance: 1.6
Yeast gene YER107C
  The level of expressed mRNA in the presence of chemical substance/The level of expressed mRNA in the absence of chemical substance: 2.5
Yeast gene YER130C
  The level of expressed mRNA in the presence of chemical substance/The level of expressed mRNA in the absence of chemical substance: 2.7
Yeast gene YFL028C
  The level of expressed mRNA in the presence of chemical substance/The level of expressed mRNA in the absence of chemical substance: 1.7
Yeast gene YFL043C
  The level of expressed mRNA in the presence of chemical substance/The level of expressed mRNA in the absence of chemical substance: 1.8
Yeast gene YGL158W
  The level of expressed mRNA in the presence of chemical substance/The level of expressed mRNA in the absence of chemical substance: 0.4
Yeast gene YGL229C
  The level of expressed mRNA in the presence of chemical substance/The level of expressed mRNA in the absence of chemical substance: 2.2
Yeast gene YGR136W
  The level of expressed mRNA in the presence of chemical substance/The level of expressed mRNA in the absence of chemical substance: 1.1
Yeast gene YGR189C
  The level of expressed mRNA in the presence of chemical substance/The level of expressed mRNA in the absence of chemical substance: 0.5
Yeast gene YGR213C
  The level of expressed mRNA in the presence of chemical substance/The level of expressed mRNA in the absence of chemical substance: 4.1
Yeast gene YGR257C
  The level of expressed mRNA in the presence of chemical substance/The level of expressed mRNA in the absence of chemical substance: 2.1
Yeast gene YHR004C
  The level of expressed mRNA in the presence of chemical substance/The level of expressed mRNA in the absence of chemical substance: 2.0
Yeast gene YHR071W
  The level of expressed mRNA in the presence of chemical substance/The level of expressed mRNA in the absence of chemical substance: 2.0
Yeast gene YHR139C
  The level of expressed mRNA in the presence of chemical substance/The level of expressed mRNA in the absence of chemical substance: 1.9
Yeast gene YHR142W
  The level of expressed mRNA in the presence of chemical substance/The level of expressed mRNA in the absence of chemical substance: 1.2
Yeast gene YIL123W
  The level of expressed mRNA in the presence of chemical substance/The level of expressed mRNA in the absence of chemical substance: 0.5
Yeast gene YIL140W
  The level of expressed mRNA in the presence of chemical substance/The level of expressed mRNA in the absence of chemical substance: 0.5
Yeast gene YJL073W
  The level of expressed mRNA in the presence of chemical substance/The level of expressed mRNA in the absence of chemical substance: 2.0
Yeast gene YJL089W
  The level of expressed mRNA in the presence of chemical substance/The level of expressed mRNA in the absence of chemical substance: 1.6
Yeast gene YJL116C
  The level of expressed mRNA in the presence of chemical substance/The level of expressed mRNA in the absence of chemical substance: 3.4
Yeast gene YJR004C
  The level of expressed mRNA in the presence of chemical substance/The level of expressed mRNA in the absence of chemical substance: 1.2
Yeast gene YJR086W
  The level of expressed mRNA in the presence of chemical substance/The level of expressed mRNA in the absence of chemical substance: 1.9
Yeast gene YKL008C
  The level of expressed mRNA in the presence of chemical substance/The level of expressed mRNA in the absence of chemical substance: 3.8
